Where a SMILES comes first, the peptide text is derived from it.
Legend:
[1] = system: E. coli (ATCC CRM 8739); format: cell-based, Escherichia coli
Experimental: (§1) The method of antimicrobial assay is based on the Methods for Dilution Antimicrobial Susceptibility Tests for Bacteria that Grow Aerobically from the Clinical and Laboratory Standards Institute (CLSI).The antimicrobial activities of peptides were evaluated against Gram-positive bacteria S. aureus (ATCC 6538), MRSA (NCTC 12493), E. faecalis (NCTC 12493), Gram-negative bacteria E. coli (ATCC CRM 8739), K. pneumoniae (ATCC 43816), P. aeruginosa (ATCC CRM 9027), yeast C. albicans (ATCC CRM 10231) and clinical isolates MRSA (B042 V2E1 A), E. coli (ATCC BAA-2340), K. pneumoniae (ATCC BAA-1705), P. aeruginosa (B004 V2S2 B).
(§2) At the first stage of the assay, 20 μL bacteria were cultured in 100 mL Mueller Hinton Broth (MHB) or Yeast Extract–Peptone–Dextrose broth (YPD-B), respectively, and was incubated overnight. Then, microorganisms were subcultured in 20 mL fresh MHB or YPD-B to achieve cultures in the logarithmic phase (1 × 10^8 CFU/mL), which can be verified by optical density (OD) (The OD of Gram-positive bacteria is 0.23, OD of Gram-negative bacteria is 0.4, and OD of yeast is 0.15), and viable cell counts. Then, the medium was used to dilute the cultures to specific cell densities (Gram-negative and Gram-positive bacteria: 5 × 10^5 CFU/mL; yeast: 1 × 10^6 CFU/mL), which were the final concentrations of bacterial suspensions used in the assay. The peptides were dissolved in DMSO to reach a final concentration of 512 µM. A series of two-fold dilutions ranging from 512 µM to 1 µM were dosed in the 96-well plates.
(§3) Antimicrobial assays were conducted in 96-well plates, which were divided into five groups, including a negative control group (PBS), a positive control group (20 μg/mL norfloxacin for bacteria and 10 μg/mL amphotericin B for yeast), vehicle control (1% DMSO), blank control (MHB or YPD-B), and a peptide group. Each microorganism had five repetitions, and each well contained 1 µL corresponding solution and 99 µL culture. After incubation at 37 °C overnight, the absorbance of each well was tested by a microplate reader (EL808, Biolise BioTek Winooski, Minneapolis, USA) under a 550 nm wavelength. The MIC is the lowest concentration at which no bacterial growth can be observed.
(§4) The next day, 10 µL of every clear well was taken out to be cultured on a Mueller Hinton Agar (MHA) plate and incubated at 37 °C for 16–20 h. The MBC is the lowest concentration without any bacterial colonies, which means at this concentration, the peptide reduces the viability of the pathogen by more than 99.9%.

[2] = system: P. aeruginosa (ATCC CRM 9027); format: cell-based, Pseudomonas aeruginosa
Experimental: as §1, §2, §3, §4

[3] = system: P. aeruginosa (B004 V2S2 B); format: cell-based, Pseudomonas aeruginosa
Experimental: as §1, §2, §3, §4

[4] = system: K. pneumoniae (ATCC 43816); format: cell-based, Klebsiella pneumoniae
Experimental: as §1, §2, §3, §4

[5] = system: K. pneumoniae (ATCC BAA-1705); format: cell-based, Klebsiella pneumoniae
Experimental: as §1, §2, §3, §4

[6] = system: horse red cells (defibrinated horse blood); assay: Haemolysis assay; format: cell-based; conditions: 2% (v/v) horse red cell suspension mixed 1:1 with peptide in PBS, 37 ℃ 2 h, absorbance 570 nm, 0.1% Triton X-100 positive control; nine replicates from three independent tests
Experimental: The haemolysis assay was conducted on defibrinated horse blood (TCS Biosciences Ltd., Buckingham, UK), which was washed by PBS in advance. The peptides were dissolved in PBS to the concentration of 1024 μM, and a series of two-fold dilutions was made by PBS as well. A volume of different concentrations of 120 μL peptide solutions were mixed with the same volume of 2% (v/v) of horse red cell suspension gently in a 1.5 mL tube, and the complex was incubated at 37 ℃ for 2 h. PBS and 0.1% Triton X-100 with the same volume were used as the negative and positive controls, respectively. Each group had three replicates. After the incubation, 100 μL supernatant of each tube was aspirated into a new 96-well plate, and their absorbances were analysed by a microplate reader (EL808, Biolise BioTek Winooski, Minneapolis, USA) at a wavelength of 570 nm. The equation to calculate the haemolysis of the peptides is shown below. (2) […]=(A−An)/(Ap−An)×100%
A represents the absorbance of each well in the sample groups. An represents the average absorbance of the wells in the negative control group. Ap represents the average absorbance of the wells in the positive control group.

CC[C@H](C)[C@H](NC(=O)[C@@H](NC(=O)CN)C(C)C)C(=O)N[C@H](C(=O)N[C@@H](CCCCN)C(=O)N[C@H](C(=O)N[C@@H](CC(C)C)C(N)=O)[C@@H](C)O)[C@@H](C)CC [Peptide 7-tB2U-K] (H-GVIIKTL-NH2)
11,008 μM: HC50 [6]
>512 µM: MBC [1] | MIC [1] | MBC [2] | MIC [2] | MBC [3] | MIC [3] | MBC [4] | MIC [4] | MBC [5] | MIC [5]

CC[C@H](C)[C@H](NC(=O)[C@@H](NC(=O)CN)C(C)C)C(=O)N[C@H](C(=O)N[C@@H](CCCCN)C(=O)N[C@H](C(=O)N[C@@H](CC(C)C)C(=O)N[C@@H](CCCCN)C(=O)NCC(=O)N[C@@H](C)C(=O)N[C@@H](C)C(=O)N[C@@H](CCCCN)C(=O)N[C@H](C(=O)N[C@H](C(N)=O)C(C)C)[C@@H](C)O)[C@@H](C)O)[C@@H](C)CC [Peptide 14-tB2U-K] (H-GVIIKTLKGAAKTV-NH2)
>512 µM: MBC [1] | MIC [1] | MBC [2] | MIC [2] | MBC [3] | MIC [3] | MBC [4] | MIC [4] | MBC [5] | MIC [5]
10,834 μM: HC50 [6]

CC[C@H](C)[C@H](NC(=O)[C@@H](NC(=O)CN)C(C)C)C(=O)N[C@H](C(=O)N[C@@H](CCCCN)C(=O)N[C@@H](CCCCN)C(=O)N[C@@H](CC(C)C)C(=O)N[C@@H](CCCCN)C(=O)NCC(=O)N[C@@H](C)C(=O)N[C@@H](C)C(=O)N[C@@H](CCCCN)C(=O)N[C@@H](CCCCN)C(=O)N[C@H](C(=O)N[C@@H](C)C(=O)N[C@@H](C)C(=O)N[C@@H](CCCCN)C(=O)N[C@@H](CC(C)C)C(=O)N[C@@H](CC(C)C)C(N)=O)C(C)C)[C@@H](C)CC [tB2U-6K] (H-GVIIKKLKGAAKKVAAKLL-NH2)
32 µM: MBC [4] | MIC [4]
2 µM: MBC [1] | MIC [1]
128 µM: MBC [5] | MIC [5]
64 µM: MBC [3] | MIC [3]
6506 µM: HC50 [6]
16 µM: MBC [2] | MIC [2]

CC[C@H](C)[C@H](NC(=O)[C@@H](NC(=O)CN)C(C)C)C(=O)N[C@H](C(=O)N[C@@H](CCCCN)C(=O)N[C@H](C(=O)N[C@@H](CC(C)C)C(=O)N[C@@H](CCCCN)C(=O)NCC(=O)N[C@@H](C)C(=O)N[C@@H](C)C(=O)N[C@@H](CCCCN)C(=O)N[C@H](C(=O)N[C@H](C(=O)N[C@@H](C)C(=O)N[C@@H](C)C(=O)N[C@@H](CCCCN)C(=O)N[C@@H](CC(C)C)C(=O)N[C@@H](CC(C)C)C(N)=O)C(C)C)[C@@H](C)O)[C@@H](C)O)[C@@H](C)CC [tB2U-K] (H-GVIIKTLKGAAKTVAAKLL-NH2)
>512 µM: MBC [3] | MIC [3]
3056 µM: HC50 [6]
128 µM: MBC [4] | MIC [4] | MBC [5] | MIC [5]
32 µM: MBC [2] | MIC [2]
8 µM: MBC [1] | MIC [1]

CC[C@H](C)[C@H](NC(=O)[C@@H](NC(=O)CN)C(C)C)C(=O)N[C@H](C(=O)N[C@@H](CC(=O)O)C(=O)N[C@H](C(=O)N[C@@H](CC(C)C)C(=O)N[C@@H](CCCCN)C(=O)NCC(=O)N[C@@H](C)C(=O)N[C@@H](C)C(=O)N[C@@H](CCCCN)C(=O)N[C@H](C(=O)N[C@H](C(=O)N[C@@H](C)C(=O)N[C@@H](C)C(=O)N[C@@H](CCC(=O)O)C(=O)N[C@@H](CC(C)C)C(=O)N[C@@H](CC(C)C)C(N)=O)C(C)C)[C@@H](C)O)[C@@H](C)O)[C@@H](C)CC [tB2U-α] (H-GVIIDTLKGAAKTVAAELL-NH2)
15,609 μM: HC50 [6]
>512 µM: MBC [1] | MIC [1] | MBC [2] | MIC [2] | MBC [3] | MIC [3] | MBC [4] | MIC [4] | MBC [5] | MIC [5]

CC[C@H](C)[C@H](NC(=O)[C@@H](NC(=O)CN)C(C)C)C(=O)N[C@H](C(=O)N[C@@H](CC(=O)O)C(=O)N[C@H](C(=O)N[C@@H](CC(C)C)C(=O)N[C@@H](CCCCN)C(=O)NCC(=O)N[C@@H](C)C(=O)N[C@@H](C)C(=O)N[C@@H](CCCCN)C(=O)N[C@H](C(=O)N[C@H](C(=O)N[C@@H](C)C(=O)N[C@@H](C)C(=O)N[C@@H](CCC(=O)O)C(=O)N[C@@H](CC(C)C)C(=O)N[C@@H](CC(C)C)C(=O)N[C@@H](CCCNC(=N)N)C(=O)N[C@@H](CCCCN)C(=O)N[C@@H](C)C(=O)N[C@@H](Cc1c[nH]cn1)C(N)=O)C(C)C)[C@@H](C)O)[C@@H](C)O)[C@@H](C)CC [tB2U] (H-GVIIDTLKGAAKTVAAELLRKAH-NH2)
> 512 µM: MBC [4]
128 µM: MBC [1] | MIC [1]
16,393 μM: HC50 [6]
>512 µM: MBC [2] | MIC [2] | MBC [3] | MIC [3] | MBC [5] | MIC [5]
512 µM: MIC [4]

Source: article PMC8388802, “Study on the Structure-Activity Relationship of an Antimicrobial Peptide, Brevinin-2GUb, from the Skin Secretion of Hylarana guentheri” (Antibiotics, 2021)
